# Like-named read-outs stand apart in the source and are kept apart here.
# Experiments:
# Type in all cases: biochemical
# [1] = molecular target: T1, pyranose oxidase (Trametes versicolor, UniProt P79076)
# T1 construct: made in house; host or cells: Coriolus versicolor ATCC 20155, the native producer (not recombinant); Enzyme was purified from disrupted mycelium by HPA-75, Sepharose 4B and Sephadex G-100 columns
# Procedure: In this phase, 1.4 ml of 50 mM tris-hydrochloride buffer (pH 7.0), 0.1. ml of 250 mU enzyme solution and 0.5 ml of electron acceptor solutions having various concentrations as indicated in Table 2 were put into a cell with Thunberg tube. After saturating with dissolved oxygen, the reaction solution was mixed with 0.5 ml of a 0.1 M glucose solution. The change in absorbancy per minute from 30 minutes to 90 minutes after mixing was determined and the activities of the electron acceptors are expressed as relative activity.
# [2] = molecular target: T1, pyranose oxidase; test: Substrate specificity (relative activity on carbohydrates, peroxidase/4AA-phenol colour assay); conditions: substrate: 0.1 ml of 100 mM carbohydrate liquor; enzyme 2.5 U/ml; percentage of the glucose reaction
# Procedure: A 3.0 ml sample is first prepared comprising 1.0 ml of 0.1 M tris-hydrochloride buffer (pH 7.0), 0.2 ml of a colouring reagent prepared in advance as hereinafter described, 0.1 ml of 1 M glucose solution, 0.1 ml of a solution of the pyranose oxidase at a known concentration, 0.1 ml of 0.1 mM flavinadenine dinucleotide and 1.5 ml of distilled water. Said colouring reagent is prepared by adding 0.1 M tris-hydrochloride buffer (pH 7.0) containing 10 m mol ℓ4-aminoantipyrine (hereinafter referred to as 4AA) and 10 m mol/Zphenol, to an amount of a peroxidase which is sufficient to provide a peroxidase concentration in said buffer of 2000 U per 100 mI. The pyranose oxidase containing sample is incubated at 37°C and the increasing rate of the absorbancy at 500 nm is automatically measured on a spectrophotometer. If the molecular extinction coefficient of a quinoneimine pigment formed under these conditions is defined as 5.3 x 10^3, and one unit of enzymatic activity is defined as the amount of the enzyme that produces one µ mole of hydrogen peroxide per minute at a temperature of 37°C and at a pH of 7.0, then the enzymatic activity (A) of the pyranose oxidase in the sample can be defined by the following formula:- [formula] where A500 is the rate of increase of the absorbancy of the sample per minute at 500nm.
# The same reactions as described in the assay method for enzymatic activity were repeated except that an enzyme concentration of 2.5 U/ml was used, and, as the substrate, 0.1 ml samples of various carbohydrate liquors indicated in Table I were used, each such liquor having a concentration of 100 mM. […] The specificity with respect to the latter two, in particular being a great deal lower than that of the known pyranose oxidase derived from microorganisms of the genus Polyporus (Table 1 of B.B.A. 167, 501-510 (1968)).
# [3] = molecular target: T1, pyranose oxidase; test: biochemical
# Procedure: Samples of the enzyme were dissolved in Tris buffer solutions have the pH indicated in Figure 2 to make up enzyme solutions having an activity of 250 mU/3.7 ml. Each of the enzyme solutions was put into a BIOXYGRAPH cell (trade name for a cell for measuring oxygen concentration made by Kyusui Kagaku Laboratory, Japan), and 50 µℓ of 1 M glucose were added. Measurements were made to determine the amount of absorbed oxygen.
# Various inhibitors were studied in the same manner as that adopted in determination of the optimum pH. A reaction solution comprising 3.4 ml of 50 mM tris-hydrochloride buffer (pH 7.0), 0.1 ml of enzyme solutin containing 280 mU of pyranose oxidase and 0.2 ml of 18.5 mM inhibitor solution were put into a cell for measuring oxygen uptake and 50µℓof 1M glucose were added thereto and the sample incubated at 37°C.
# [4] = electron acceptor concentration 0.1 mM, pH 7.0, 250 mU enzyme solution, 0.1 M glucose solution
# [5] = 0.2 ml of 18.5 mM inhibitor solution, 280 mU pyranose oxidase, pH 7.0, 37°C, 50 µl of 1M glucose
compound,measurement,setting,value
NC(=O)c1ccc[n+]([C@@H]2O[C@H](COP(=O)([O-])OP(=O)(O)OC[C@H]3O[C@@H](n4cnc5c(N)ncnc54)[C@H](O)[C@@H]3O)[C@@H](O)[C@H]2O)c1 [Nicotinamide-adenine dinucleotide],Relative Activity (%),[1]; [4],0%
O=C[C@H](O)[C@@H](O)[C@@H](O)[C@H](O)CO [galactose],Relative Activity (%),[2],0.9%
copper sulfate,Percent Inhibition (%),[3]; [5],35.7%
O=[N+]([O-])[O-].[Ag+] [silver nitrate],Percent Inhibition (%),[3]; [5],53.3%
N[C@H]1C(O)O[C@H](CO)[C@@H](O)[C@@H]1O (stereo partly shown) [glucosamine],Relative Activity (%),[2],0%
OC[C@H]1O[C@@H](O[C@H]2[C@H](O)[C@@H](O)C(O)O[C@@H]2CO)[C@H](O)[C@@H](O)[C@H]1O (stereo partly shown) [lactose],Relative Activity (%),[2],0%
cobalt sulfate,Percent Inhibition (%),[3]; [5],13.3%
NC(=O)c1ccc[n+]([C@@H]2O[C@H](COP(=O)([O-])OP(=O)(O)OC[C@H]3O[C@@H](n4cnc5c(N)ncnc54)[C@H](OP(=O)(O)O)[C@@H]3O)[C@@H](O)[C@H]2O)c1 [Nicotinamide-adenine dinucleotide phosphate],Relative Activity (%),[1]; [4],0%
O=O [Oxygen],electron acceptor suitability (in words),[1],optimum electron acceptor
same,Relative Activity (%),[1]; pH 7,100%
O=C(O)[C@H](O)[C@@H](O)[C@H](O)[C@H](O)CO [gluconic acid],Relative Activity (%),[2],0%
O=C[C@H](O)[C@@H](O)[C@H](O)CO [xylose],Relative Activity (%),[2],2.6%
O=C(CO)[C@H](O)[C@@H](O)[C@H](O)CO [sorbose],Relative Activity (%),[2],3.4%
OC[C@H]1O[C@H](O[C@H]2[C@H](O)[C@@H](O)[C@H](O)O[C@@H]2CO)[C@H](O)[C@@H](O)[C@@H]1O [maltose],Relative Activity (%),[2],0%
magnesium sulfate,Percent Inhibition (%),[3]; [5],0%
OO [hydrogen peroxide],inhibition at 18500 µM,"[3]; pH 7, read-out: Percent Inhibition (%)",20%
O=C(CO)[C@@H](O)[C@H](O)[C@H](O)CO [fructose],Relative Activity (%),[2],0%
OC[C@H]1O[C@H](O[C@H]2O[C@H](CO)[C@@H](O)[C@H](O)[C@H]2O)[C@H](O)[C@@H](O)[C@@H]1O [trehalose],Relative Activity (%),[2],0%
"O=C1C(Cl)=CC(=Nc2ccc(O)cc2)C=C1Cl [2,6-Dichlorophenolindophenol]",Relative Activity (%),"[1]; electron acceptor concentration 0.04 mM, pH 7.0, 250 mU enzyme solution, 0.1 M glucose solution",2.5%
Oc1cccc2cccnc12 [8-hydroxyquinoline],Percent Inhibition (%),[3]; pH 7,13.3%
Nitroprusside-tetrazolium,Relative Activity (%),[1]; [4],0%
OC[C@@H](O)[C@@H](O)[C@H](O)[C@H](O)CO [mannitol],Relative Activity (%),[2],0%

# — patent EP0119332A1, “Novel pyranose oxidase processes for the production and use thereof and test compositions for use therein” (priority 1983, dated 1984)
